The term EC50 denotes the concentration needed to bring the measured effect to its halfway point. By CC50 is commonly meant the concentration giving 50% cytotoxicity. Broadly, the logD is lipophilicity at a set pH, counting ionised and neutral species.

The subject of data set [1] is Respiratory syncytial virus recombinant with luciferase (RSV-Luc5) in HEp-2 cells. The experiment in a line: microbe, parasite or virus in culture. It is filed as cell-based. To be noted: human respiratory syncytial virus, HEp-2, read-out: EC50 RSVFluc-Hep2 384 V2.
The test system of data set [2] is SARS Coronavirus 2 recombinant with NanoLuc (SARS-CoV2-NLuc) in A549-hACE2 cells. Put plainly: microbe, parasite or virus in culture. It is filed as cell-based. To be noted: A549; read-out: EC50 SARS CoV2 NanoLuc A549 384.
Data set [3] concerns Respiratory syncytial virus recombinant with luciferase (RSV-Luc5) in Normal Human Bronchial Epithelial (NHBE) cells. Put plainly: microbe, parasite or virus in culture. The settings on record: read-out: EC50 RSVFluc-NHBE 384 V2. It is filed as cell-based.
Data set [4] in a line: CC50 MT4 cytotoxicity (Cell-Titer Glo). The settings on record: human. It is filed as cell-based. Put shortly: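 CC50 values are the concentrations cutting viability by 50%, fitted by non-linear regression against untreated (100%) and 2 μM puromycin (0%) controls. Cell-Titer Glo luminescence measured after 4-5 days at 37° C exposure of uninfected MT-4 and HEp-2 cells to 3-fold dilutions spanning 15 nM to 100,000 nM.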

Data set [5] in a line: GI S9 stability - no PMSF. It is filed as in vitro ADME. To be noted: pH 7.4; human intestinal S9, PMSF-free; read-out: GIS9-HUMAN-NoPMSF T1/2. Put shortly: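 Stability was assessed by Q-Exactive LC-MS peak area ratios against internal standard, tracking loss of parent and appearance of nucleoside metabolite Reference Compound A. Incubations used 2 μM compound in 1 mg/mL intestinal S9 without PMSF (PBS, pH 7.4), with six samples taken over 120 min.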

A further data set can be described thus: Plasma stability. In kind it is in vitro ADME. Further details: unit not given here. The settings on record: 37° C., 2 μM substrate. Put shortly: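 LC-MS (Q-Exactive, 5 ppm tolerance, 0.1% formic acid water/acetonitrile gradient) quantified compound in quenched aliquots. Aliquots were taken at 0.05, 0.5, 1, 2, 3 and 4 hr and quenched with internal-standard solution, and supernatants were diluted with water after centrifugation.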

The subject of data set [6] is Caco-2 cells (clone C2BBe1). The experiment in a line: CACO-2 permeability. To be noted: for DM Caco2 A to B: apical to basolateral, donor pH 6.5, receiver pH 7.4; for DM Caco2 B to A: basolateral to apical. Also on record: unit not given here. It is filed as in vitro ADME. The method in brief:
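A-to-B and B-to-A flux measured by LC-MS/MS from receiver samples taken at 1 and 2 h, with donor sampled at 0 and 2 h and recovery checked. Buffers: pH 6.5 HBSS with 200 μM BNPP on the donor side, pH 7.4 with BSA on the receiver side. Monolayers were 21-day cultures, TEER-verified, in duplicate wells.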
(Passage across Caco-2 layers is used to estimate intestinal permeability.)

As for `N#CC12CC(COC(=O)OC[C@H]3O[C@@](C#N)(c4ccc5c(N)ncnn45)[C@H](O)[C@@H]3O)(C1)C2` [Compound 121, ((2R,3S,4R,5R)-5-(4-aminopyrrolo[2,1-f][1,2,4]triazin-7-yl)-5-cyano-3,4-dihydroxytetrahydrofuran-2-yl)methyl ((3-cyanobicyclo[1.1.1]pentan-1-yl)methyl) carbonate], the EC50 was determined as 1510 nM in data set [1], 7970 nM in data set [2] and 1560 nM in data set [3]. Besides, in data set [4], the CC50 is more than 50000 nM. In addition, the half-life at 2 µM in data set [5] was 95 s. In the data set “Plasma stability”, the “STA Human Plasma 37” value stood at 107.7. Moreover, the “DM Caco2 A to B” value in data set [6] was determined as 0.08. Also, the “DM Caco2 B to A” value in data set [6] amounted to 4.15. For the same compound, the logD in “physchem” was 1.1.

On to `N#CC1(COC(=O)OC[C@H]2O[C@@](C#N)(c3ccc4c(N)ncnn34)[C@H](O)[C@@H]2O)CC1` [Compound 118, ((2R,3S,4R,5R)-5-(4-aminopyrrolo[2,1-f][1,2,4]triazin-7-yl)-5-cyano-3,4-dihydroxytetrahydrofuran-2-yl)methyl ((l-cyanocyclopropyl)methyl) carbonate], for which the EC50 in data set [1] came to 1760 nM; in data set [2], 6800 nM; in data set [3] it was 1820 nM. In data set [4], this compound came in with a CC50 of more than 50000 nM. Further, the half-life at 2 µM in data set [5] is 247 s. In addition, the “STA Human Plasma 37” value in “Plasma stability” was determined as 59.4. For the same compound, the “DM Caco2 A to B” value in data set [6] was found to be 0.07. Besides, in data set [6], the “DM Caco2 B to A” value amounted to 1.67. For the same compound, the logD in the data set “physchem” is 0.7.

On to `N#C[C@@]1(c2ccc3c(N)ncnn23)O[C@H](COC(=O)OCC2CC(F)(F)C2)[C@@H](O)[C@H]1O` [Compound 115, ((2R,3S,4R,5R)-5-(4-aminopyrrolo[2,1-f][1,2,4]triazin-7-yl)-5-cyano-3,4-dihydroxytetrahydrofuran-2-yl)methyl ((3,3-difluorocyclobutyl)methyl) carbonate], for which the half-maximal effective concentration (EC50) in data set [1] is 228 nM; in data set [2] it was 1760 nM; in data set [3], 990 nM. In addition, in data set [4], the CC50 was more than 50000 nM. Besides, in data set [5], the half-life at 2 µM was 34.9 s. Moreover, the “STA Human Plasma 37” value in the data set “Plasma stability” stood at 41.2. For the same compound, the “DM Caco2 A to B” value in data set [6] is listed as 0.91. Besides, the “DM Caco2 B to A” value in data set [6] amounted to 8.32. This compound returned a logD in the data set “physchem” of 1.4.

Regarding `CCCCCCCCCCOC(=O)OC[C@H]1O[C@@](C#N)(c2ccc3c(N)ncnn23)[C@H](O)[C@@H]1O` [Compound 124, ((2R,3S,4R,5R)-5-(4-aminopyrrolo[2,1-f][1,2,4]triazin-7-yl)-5-cyano-3,4-dihydroxytetrahydrofuran-2-yl)methyl decyl carbonate], the values for the EC50 in data set [1], in data set [2] and in data set [3] were 723 nM, 1140 nM and 625 nM, respectively. Besides, in data set [4], half-maximal cytotoxicity (CC50) was put at 27600 nM. The half-life at 2 µM in data set [5] amounted to 44.6 s. Moreover, in the data set “Plasma stability”, the “STA Human Plasma 37” value stood at 192.3. For the same compound, the “DM Caco2 A to B” value in data set [6] is listed as 0.08. In data set [6], the “DM Caco2 B to A” value is 7.35. The compound further came in with a logD in “physchem” of 3.7.

For the compound `CC1(COC(=O)OC[C@H]2O[C@@](C#N)(c3ccc4c(N)ncnn34)[C@H](O)[C@@H]2O)CCC1` [Compound 122, ((2R,3S,4R,5R)-5-(4-aminopyrrolo[2,1-f][1,2,4]triazin-7-yl)-5-cyano-3,4-dihydroxytetrahydrofuran-2-yl)methyl ((1-methylcyclobutyl)methyl) carbonate], the EC50 in data set [1] was found to be 290 nM; in data set [2], 707 nM; in data set [3], 1040 nM. This compound had a CC50 in data set [4] of more than 50000 nM. Further, the half-life at 2 µM in data set [5] amounted to 38.2 s. Moreover, the “STA Human Plasma 37” value in the data set “Plasma stability” worked out at 34.1. In the data set “physchem”, the pH-dependent lipophilicity (logD) is 1.9.

In the case of `CC1(C)CC(COC(=O)OC[C@H]2O[C@@](C#N)(c3ccc4c(N)ncnn34)[C@H](O)[C@@H]2O)C1` [Compound 117, ((2R,3S,4R,5R)-5-(4-aminopyrrolo[2,1-f][1,2,4]triazin-7-yl)-5-cyano-3,4-dihydroxytetrahydrofuran-2-yl)methyl ((3,3-dimethylcyclobutyl)methyl) carbonate], the EC50 in data set [1] worked out at 494 nM; in data set [2], 778 nM; in data set [3], 1380 nM. The compound further came in with a CC50 in data set [4] of more than 50000 nM. The half-life at 2 µM in data set [5] amounted to 37 s. In addition, in “Plasma stability”, the “STA Human Plasma 37” value stood at 86. In data set [6], the “DM Caco2 A to B” value was determined as 6.18. The “DM Caco2 B to A” value in data set [6] is 10.53. The compound also returned a log distribution coefficient (logD) in the data set “physchem” of 2.3.

Turning to `N#C[C@@]1(c2ccc3c(N)ncnn23)O[C@H](COC(=O)OCC2(C(F)(F)F)CC2)[C@@H](O)[C@H]1O` [Compound 120, ((2R,3S,4R,5R)-5-(4-aminopyrrolo[2,1-f][1,2,4]triazin-7-yl)-5-cyano-3,4-dihydroxytetrahydrofuran-2-yl)methyl ((1-(trifluoromethyl)cyclopropyl)methyl) carbonate], the EC50 turned out to be 816 nM in data set [1], 1410 nM in data set [2] and 1260 nM in data set [3]. Besides, the CC50 in data set [4] is more than 50000 nM. The half-life at 2 µM in data set [5] was 36.3 s. Besides, in “Plasma stability”, the “STA Human Plasma 37” value is listed as 38.7. Besides, the “DM Caco2 A to B” value in data set [6] is given as 0.77. In data set [6], the “DM Caco2 B to A” value was found to be 8.35. Besides, the logD in “physchem” is 1.6.

With `CC1(COC(=O)OC[C@H]2O[C@@](C#N)(c3ccc4c(N)ncnn34)[C@H](O)[C@@H]2O)CCCC1` [Compound 123, ((2R,3S,4R,5R)-5-(4-aminopyrrolo[2,1-f][1,2,4]triazin-7-yl)-5-cyano-3,4-dihydroxytetrahydrofuran-2-yl)methyl ((1-methylcyclopentyl)methyl) carbonate], the EC50 in data set [1] was 720 nM; in data set [2], 1160 nM; in data set [3] it was 1810 nM. Also, the CC50 in data set [4] was more than 50000 nM. Also, the half-life at 2 µM in data set [5] came to 36.9 s. For the same compound, the “STA Human Plasma 37” value in “Plasma stability” is 96.5. In data set [6], the “DM Caco2 A to B” value is 3.18. For the same compound, the “DM Caco2 B to A” value in data set [6] is 9.88. In addition, the logD in the data set “physchem” amounted to 2.2.

With `COC(=O)Nc1ncnn2c([C@]3(C#N)O[C@H](COC(=O)OCC(C)(C)C)[C@@H](OC(=O)OC)[C@H]3OC(=O)OC)ccc12` [Compound 103, methyl (7-((2R,3R,4R,5R)-2-cyano-3,4-bis((methoxycarbonyl)oxy)-5-((((neopentyloxy)carbonyl)oxy)methyl)tetrahydrofuran-2-yl)pyrrolo[2,1-f][1,2,4]triazin-4-yl)carbamate], the EC50 in data set [1] is 20700 nM; in data set [2], more than 50000 nM; in data set [3], 17700 nM. In addition, the CC50 in data set [4] is more than 50000 nM. Further, the logD in “physchem” came to 3.2.

Consider `COC1O[C@H]2[C@@H](O1)[C@](C#N)(c1ccc3c(N)ncnn13)O[C@@H]2COC(=O)OC(C)C` (stereo partly drawn) [Compound 107, ((3aR,4R,6R,6aR)-6-(4-aminopyrrolo[2,1-f][1,2,4]triazin-7-yl)-6-cyano-2-methoxytetrahydrofuro[3,4-d][1,3]dioxol-4-yl)methyl isopropyl carbonate], for which the EC50 in data set [1], in data set [2] and in data set [3] was more than 50000 nM throughout. The CC50 in data set [4] is more than 50000 nM. In addition, the logD in the data set “physchem” stood at 2.5.

Consider `CC(C)(C)OP(=O)(OCOC(=O)OC[C@H]1O[C@@](C#N)(c2ccc3c(N)ncnn23)[C@H](O)[C@@H]1O)OC(C)(C)C` [Compound 110, ((2R,3S,4R,5R)-5-(4-aminopyrrolo[2,1-f][1,2,4]triazin-7-yl)-5-cyano-3,4-dihydroxytetrahydrofuran-2-yl)methyl (((di-tert-butoxyphosphoryl)oxy)methyl) carbonate], for which the figures for the concentration giving a half-maximal response (EC50) in data set [1] and in data set [3] were 10800 nM and 20400 nM, respectively. The compound also yielded a CC50 in data set [4] of more than 50000 nM. In addition, in “physchem”, the logD worked out at 1.7.

For `N#C[C@@]1(c2ccc3c(N)ncnn23)O[C@H](COC(=O)OCOP(=O)(O)O)[C@@H](O)[C@H]1O` [Compound 40, ((2R,3S,4R,5R)-5-(4-aminopyrrolo[2,1-f][1,2,4]triazin-7-yl)-5-cyano-3,4-dihydroaytetrahydrofuran-2-yl)methyl ((phosphonooxy)methyl) carbonate], the EC50 in data set [1] was determined as 3550 nM; in data set [3], 3690 nM. In data set [4], this compound came in with a CC50 of more than 50000 nM. The logD in “physchem” was less than 0.3.

Take `N#C[C@@]1(c2ccc3c(N)ncnn23)O[C@H](COC(=O)OCC2CC2)[C@@H](O)[C@H]1O` [Compound 125, ((2R,3S,4R,5R)-5-(4-aminopyrrolo[2,1-f][1,2,4]triazin-7-yl)-5-cyano-3,4-dihydroxytetrahydrofuran-2-yl)methyl (cyclopropylmethyl) carbonate]: the figures for the EC50 in data set [1], in data set [2] and in data set [3] were 220 nM, 1790 nM and 645 nM, respectively. The CC50 in data set [4] is more than 50000 nM. Also, the half-life at 2 µM in data set [5] stood at 34.9 s. Moreover, the “STA Human Plasma 37” value in “Plasma stability” worked out at 12.2. Further, the logD in the data set “physchem” is 1.1.

The values are drawn from patent publication US12448383B2, “Compounds and methods for treatment of viral infections” (priority 2022, dated 2025).
